Measurements: US6613792B1, “Treatment of premenstrual syndrome and menopause” (Designed Nutritional Products, Inc., priority 1999, dated 2003)

Assays:
[1] = tested on: premenstrual syndrome (PMS) symptoms; test: Case reports of subjects with premenstrual syndrome taking I3C capsules; assay type: in vivo, human
Method: Capsules containing 100 to 300 mg of 1H-indole-3-methanol (I3C™ from Designed Nutritional Products, Orem, Utah, U.S.) were made by placing that amount of 1H-indole-3-methanol into gelatin capsules. Capsules containing 200 mg of 1H-indole-3-methanol (I3C™ from Designed Nutritional Products, Orem, Utah, U.S.) were made by placing that amount of 1H-indole-3-methanol into gelatin capsules. Subject A, commonly suffered from fatigue, moodiness, and bluish circles beneath their eyes prior to menstruation. During menses, which typically lasted for 7-10 days, they experienced menstrual cramping which required ibuprofen for relief. Subject A had taken I3C™ for three menstrual cycles. […] Subject B had taken I3C™ for one menstrual cycle. Their PMS symptoms prior to taking I3C™ included extreme fatigue, frequent migraine headaches, bloating, moodiness, and severe menstrual cramps. They started taking I3C™ with no knowledge of its effects or benefits. […] Subject C had been diagnosed and treated for endometriosis. Their PMS symptoms included fatigue, heavy blood flow (menorrhagia), severe menstrual cramps, and menses of approximately 10 days. Subject C had taken I3C™ for six cycles. […] Subject D, had taken I3C™ for ½ months and noticed a rapid change in their PMS symptoms.

menopausal symptoms = test: Case report of a subject with menopausal symptoms taking I3C capsules; assay type: in vivo, human; conditions: Subject E
Method: Capsules containing 100 to 300 mg of 1H-indole-3-methanol (I3C™ from Designed Nutritional Products, Orem, Utah, U.S.) were made by placing that amount of 1H-indole-3-methanol into gelatin capsules. […] After the hysterectomy, Subject E had menopausal symptoms including hot flashes, occasional sweating profusion, grogginess after a full night's sleep, and almost continuous irritable bowel syndrome. Subject E started taking four 100 mg capsules of I3C™ per day, two capsules in the morning and two capsules in the late afternoon. […] Their hot flashes and excessive sweating disappeared after taking a few doses of I3C™.

[2] = Reactivity/stability of 1H-indole-3-methanol in solvent, sunlight and heat (HPLC); assay type: physicochemical
Method: Relatively pure 1H-indole-3-methanol (I3C™ from Designed Nutritional Products, Orem, Utah, U.S.) in a water solution was prepared for HPLC analysis. One sample was diluted with water and the other was diluted with methanol. […] In the course of manufacturing and formulating dietary supplements containing 1H-indole-3-methanol, it was observed that the carbinol in the three position is extremely reactive. […] In the course of heating at 60° C., 99% of the present 1H-indole-3-methanol will disappear from HPLC chromatograms, being replaced by as many as 40 or 50 different derived compounds, virtually all of them identified as containing an indole component. More detailed studies have shown that one of the first compounds to appear in a sample of 1H-indole-3-methanol undergoing heat treatment is ([…], a “dimer” of 1H-indole-3-methanol.

[3] = Subject C, endometriosis, six cycles

SMILES: OCc1c[nH]c2ccccc12 [I3C™, 1H-indole-3-methanol]
- PMS symptoms (fatigue, moodiness, bluish circles beneath eyes, menstrual cramping) ([1]; Subject A, I3C taken for three menstrual cycles): the above symptoms were alleviated
- duration of menses ([1]; Subject A, three menstrual cycles, typically 7-10 days before): approximately 4 days
- PMS symptoms (extreme fatigue, migraine headaches, bloating, moodiness, severe menstrual cramps) ([1]; Subject B, within one menstrual cycle): experienced only mild fatigue and their remaining symptoms were alleviated
- fatigue ([1]; Subject C, endometriosis, I3C taken for six cycles): ceased
- menstrual blood flow [1, 3]: decreased substantially
- severity of menstrual cramps [1, 3]: decreased
- PMS symptoms after starting I3C again ([1]; Subject C, restart after withdrawal): their symptoms were alleviated
- duration of menses ([1]; Subject C, six cycles, approximately 10 days before): approximately 5 days
- PMS symptoms after stopping I3C for one menstrual cycle ([1]; Subject C, withdrawal for one cycle): previous PMS symptoms returned
- PMS symptoms (bloating, headaches) ([1]; Subject D, I3C taken for ½ months): less bloating and reduced headaches
- bowel, sleep and energy symptoms (menopausal symptoms; four 100 mg capsules per day for one month): bowel regularity, less sleep disturbances, and a steady energy level throughout the day
- hot flashes and excessive sweating (menopausal symptoms; partial hysterectomy, four 100 mg capsules per day, after a few doses): disappeared
- 1H-indole-3-methanol disappearing from HPLC chromatograms on heating ([2]; heating at 60° C.): 99%
- stability in the presence of sunlight ([2]; sunlight): change color in just a few hours
- HPLC peaks after dilution with methanol (reaction to methyl ether) ([2]; water solution diluted with methanol, by the time of injection): two peaks of about the same magnitude
- HPLC peaks after dilution with water ([2]; water solution diluted with water): only one peak
